According to US9187471B2, “Pyrido [4,3-b] indole and pyrido [3,4-b] indole derivatives and methods of use” (Medivation Technologies, Inc., priority 2010, dated 2015):

Columns and labels:
[1] = biological target: T1, human recombinant adrenergic α2B receptor (Homo sapiens, UniProt P18089); assay: Adrenergic α2B radioligand binding ([3H]Rauwolscine); details: read-out: Adrenergic (0.1 μM) a2B, percent inhibition of specific binding; compound at 0.1 μM; 2.5 nM [3H]Rauwolscine
T1 construct: expressed in transfected cells; host or cells: CHO-K1
T1 sequence (P18089 1-450): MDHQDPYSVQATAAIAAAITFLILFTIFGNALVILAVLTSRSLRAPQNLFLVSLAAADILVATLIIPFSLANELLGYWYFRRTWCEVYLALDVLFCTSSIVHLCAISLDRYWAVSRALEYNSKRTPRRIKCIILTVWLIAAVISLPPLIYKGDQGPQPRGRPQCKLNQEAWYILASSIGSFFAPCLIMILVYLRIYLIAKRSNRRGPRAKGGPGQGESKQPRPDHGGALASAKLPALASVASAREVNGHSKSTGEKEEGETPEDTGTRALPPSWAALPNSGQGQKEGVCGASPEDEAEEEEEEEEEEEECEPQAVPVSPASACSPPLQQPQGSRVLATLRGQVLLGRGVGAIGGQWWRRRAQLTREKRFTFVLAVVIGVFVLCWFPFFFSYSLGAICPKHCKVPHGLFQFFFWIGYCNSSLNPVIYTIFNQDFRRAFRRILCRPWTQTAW
Description: To evaluate in radioligand binding assays the activity of compounds of the invention, human recombinant adrenergic α2B receptor expressed in Chinese hamster ovary (CHO) K1 cells (Uhlen, S. et al, Eur. J. Pharmacol. 343(1):93, 1998) in a modified Tris-HCl buffer (50 mM Tris-HCl, pH 7.4, 12.5 mM MgCl2, 1 mM EDTA, 0.2% BSA) was used. Compounds of the invention were incubated with 2.5 nM [^3H]Rauwolscine for 60 min at 25° C. Non-specific binding was estimated in the presence of 10 μM Prazosin. Receptor proteins were filtered and washed, the filters were then counted to determine [^3H]Rauwolscine specifically bound. […] Compounds of the invention were tested in this biochemical assay and percent inhibition of specific binding was determined.

[2] = biological target: T2, human recombinant adrenergic α1D receptor (Homo sapiens, UniProt P25100); assay: Adrenergic α1D radioligand binding ([3H]Prazosin); details: read-out: Adrenergic (0.1 μM) a1D, percent inhibition of specific binding; compound at 0.1 μM; 0.6 nM [3H]Prazosin
T2 construct: expressed in transfected cells; host or cells: HEK-293
T2 sequence (P25100 1-572): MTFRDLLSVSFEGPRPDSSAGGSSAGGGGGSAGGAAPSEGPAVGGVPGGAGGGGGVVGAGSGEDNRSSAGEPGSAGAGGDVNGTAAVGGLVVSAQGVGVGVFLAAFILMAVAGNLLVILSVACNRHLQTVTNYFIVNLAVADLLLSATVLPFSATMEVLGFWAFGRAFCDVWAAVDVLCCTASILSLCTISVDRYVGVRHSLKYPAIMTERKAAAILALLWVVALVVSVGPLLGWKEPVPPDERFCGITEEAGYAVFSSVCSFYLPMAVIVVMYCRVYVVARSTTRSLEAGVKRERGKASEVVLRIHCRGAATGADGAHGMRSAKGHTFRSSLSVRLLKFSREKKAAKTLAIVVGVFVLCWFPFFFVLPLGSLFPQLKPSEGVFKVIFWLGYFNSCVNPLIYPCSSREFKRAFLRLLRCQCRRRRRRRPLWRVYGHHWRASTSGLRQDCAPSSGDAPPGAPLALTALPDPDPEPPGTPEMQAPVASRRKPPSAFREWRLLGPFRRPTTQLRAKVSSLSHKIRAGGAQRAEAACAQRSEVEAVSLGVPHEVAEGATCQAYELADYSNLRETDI
Description: Compounds of invention were incubated with 0.6 nM [^3H]Prazosin for 60 min at 25° C. Non-specific binding was estimated in the presence of 10 μM phentolamine. Receptor proteins were filtered and washed, the filters were then counted to determine [^3H]Prazosin specifically bound. […] Compounds of the invention were tested in this biochemical assay and percent inhibition of specific binding was determined.

SMILES	inhibition at 0.1 µM [1] [%]	inhibition at 0.1 µM [2] [%]
Cc1ccc2c(c1)c1c(n2-c2cscc2-c2ccc(C)s2)CCN(C)C1 [Compound No. 79]	106	
CNC(=O)c1cccc(-c2ccc(-n3c4c(c5cc(C)ccc53)CN(C)CC4)nc2)c1 [Compound No. 143, 3-(6-(2,8-dimethyl-3,4-dihydro-1H-pyrido[4,3-b]indol-5(2H)-yl)pyridin-3-yl)-N-methylbenzamide]	77	72
